From publication PMC9090415, “Discovery of small molecule inhibitors of Plasmodium falciparum apicoplast DNA polymerase” (Journal of Enzyme Inhibition and Medicinal Chemistry, 2022)

Target: P. falciparum apicoplast DNA polymerase (Pf-apPOL) (Plasmodium falciparum, UniProt Q8ILY1)
Test: Fluorescence-based high-throughput DNA polymerase assay (molecular beacon), primary screen and dose-response
Assay type: biochemical
In short: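 Single-point screening used 10 µM compound with 20 nM polymerase, 20 nM hairpin substrate and 6 µM dNTPs for 90 min at 25 °C. Confirmatory titrations (2.5–80 µM) followed fluorescence at three times, and IC50 was derived from a fit including a cooperativity term n.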

[1] = DRC-2, 5', concentration 10 (unit not given)
[2] = DRC-2, 40', concentration 10 (unit not given)
[3] = DRC-2, 40', concentration 20 (unit not given)
[4] = DRC-2, 90', concentration 5 (unit not given)
[5] = DRC-2, 90', concentration 10 (unit not given)
[6] = DRC-2, 180', concentration 20 (unit not given)
[7] = DRC-2; 5'; concentration 5 (unit not given)
[8] = primary screen value of the 186 hits; unit not given; 90 min, 10 µM
[9] = primary screen value, head "DNA Pol", unit not given; 90 min, 10 µM

Chain of P. falciparum apicoplast DNA polymerase (Pf-apPOL) (Q8ILY1 entry or part of it): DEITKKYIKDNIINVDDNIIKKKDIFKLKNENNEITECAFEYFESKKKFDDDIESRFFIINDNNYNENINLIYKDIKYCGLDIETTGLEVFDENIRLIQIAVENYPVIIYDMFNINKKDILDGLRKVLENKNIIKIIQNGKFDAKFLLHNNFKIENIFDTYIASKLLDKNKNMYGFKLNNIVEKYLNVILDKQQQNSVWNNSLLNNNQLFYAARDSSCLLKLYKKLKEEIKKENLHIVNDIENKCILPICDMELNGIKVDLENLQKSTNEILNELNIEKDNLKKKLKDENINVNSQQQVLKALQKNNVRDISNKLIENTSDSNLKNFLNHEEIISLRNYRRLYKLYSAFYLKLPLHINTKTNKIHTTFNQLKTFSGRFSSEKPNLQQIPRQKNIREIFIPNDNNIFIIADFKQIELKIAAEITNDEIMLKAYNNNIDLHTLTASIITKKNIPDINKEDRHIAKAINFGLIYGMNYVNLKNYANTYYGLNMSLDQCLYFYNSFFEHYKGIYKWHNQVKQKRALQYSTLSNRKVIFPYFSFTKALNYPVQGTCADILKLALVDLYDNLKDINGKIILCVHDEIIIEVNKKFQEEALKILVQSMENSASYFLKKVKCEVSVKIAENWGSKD

## O=[N+]([O-])/C=C/c1ccc(-c2ccc(Br)cc2)o1 [Molecule 31, O=N(=O)/C=C/c1ccc(o1)c1ccc(cc1)Br]
DRC-1; 10'; concentration 2.5
  % inhibition Apo pol 10': 11.7941%
DRC-1; 10'; concentration 5
  % inhibition Apo pol 10': 25.8836%
DRC-1; 10'; concentration 10
  % inhibition Apo pol 10': 48.5342%
DRC-1; 10'; concentration 20
  % inhibition Apo pol 10': 74.9493%
DRC-1; 10'; concentration 40
  % inhibition Apo pol 10': 80.1629%
DRC-1; 10'; concentration 80
  % inhibition Apo pol 10': 73.881%
DRC-1; 90'; concentration 2.5
  % inhibition Apol 90': 4.734%
DRC-1; 90'; concentration 5
  % inhibition Apol 90': 14.8546%
DRC-1; 90'; concentration 10
  % inhibition Apol 90': 35.3896%
DRC-1; 90'; concentration 20
  % inhibition Apol 90': 66.0417%
DRC-1; 90'; concentration 40
  % inhibition Apol 90': 79.0677%
DRC-1; 90'; concentration 80
  % inhibition Apol 90': 80.1627%
DRC-1; 180'; concentration 2.5
  % inhibition apPOL 180': -3.116%
DRC-1; 180'; concentration 5
  % inhibition apPOL 180': 3.824%
DRC-1; 180'; concentration 10
  % inhibition apPOL 180': 20.4945%
DRC-1; 180'; concentration 20
  % inhibition apPOL 180': 51.8012%
DRC-1; 180'; concentration 40
  % inhibition apPOL 180': 73.5889%
DRC-1; 180'; concentration 80
  % inhibition apPOL 180': 81.6814%
[1]
  % inhibition Apo pol 5': 31%
[2]
  % inhibition Apol 40': 48%
[3]
  % inhibition Apol 40': 53%
DRC-2, 40', concentration 80 (unit not given)
  % inhibition Apol 40': 48%
[4]
  % inhibition ApPOL 90': 31%
[5]
  % inhibition ApPOL 90': 48%
DRC-2, 180', concentration 5 (unit not given)
  % inhibition apPOL 180': 21%
[6]
  % inhibition apPOL 180': 53%
DRC-2; 5'; concentration 2.5
  % inhibition Apo pol 5': 3.31%
DRC-2; 5'; concentration 5
  % inhibition Apo pol 5': 21%
[7]
  % inhibition Apo pol 5': 21%
DRC-2; 5'; concentration 10
  % inhibition Apo pol 5': 31%
DRC-2; 5'; concentration 20
  % inhibition Apo pol 5': 26%
DRC-2; 5'; concentration 40
  % inhibition Apo pol 5': 18%
DRC-2; 5'; concentration 80
  % inhibition Apo pol 5': 2.17%
DRC-2; 40'; concentration 2.5
  % inhibition Apol 40': 6%
DRC-2; 40'; concentration 5
  % inhibition Apol 40': 33%
DRC-2; 40'; concentration 10
  % inhibition Apol 40': 48%
DRC-2; 40'; concentration 20
  % inhibition Apol 40': 53%
DRC-2; 40'; concentration 40
  % inhibition Apol 40': 54%
DRC-2; 40'; concentration 80
  % inhibition Apol 40': 48%
DRC-2; 90'; concentration 2.5
  % inhibition ApPOL 90': 4%
DRC-2; 90'; concentration 5
  % inhibition ApPOL 90': 31%
DRC-2; 90'; concentration 10
  % inhibition ApPOL 90': 48%
DRC-2; 90'; concentration 20
  % inhibition ApPOL 90': 56%
DRC-2; 90'; concentration 40
  % inhibition ApPOL 90': 60%
DRC-2; 90'; concentration 80
  % inhibition ApPOL 90': 59%
DRC-2; 180'; concentration 2.5
  % inhibition apPOL 180': -3.28%
DRC-2; 180'; concentration 5
  % inhibition apPOL 180': 21%
DRC-2; 180'; concentration 10
  % inhibition apPOL 180': 39%
DRC-2; 180'; concentration 20
  % inhibition apPOL 180': 53%
DRC-2; 180'; concentration 40
  % inhibition apPOL 180': 62%
DRC-2; 180'; concentration 80
  % inhibition apPOL 180': 66%
[8]
  DNA Pol: 57
[9]
  DNA Pol: 57

## O=C(Cn1ccc2c(=O)[nH]ccc21)Nc1ccc(Cl)cc1 [Molecule 36, O=C(Cn1ccc2c1cc[nH]c2=O)Nc1ccc(cc1)Cl]
DRC-1; 10'; concentration 2.5
  % inhibition Apo pol 10': 6.801%
DRC-1; 10'; concentration 5
  % inhibition Apo pol 10': 22.3776%
DRC-1; 10'; concentration 10
  % inhibition Apo pol 10': 24.792%
DRC-1; 10'; concentration 20
  % inhibition Apo pol 10': 79.2996%
DRC-1; 10'; concentration 40
  % inhibition Apo pol 10': 82.0585%
DRC-1; 10'; concentration 80
  % inhibition Apo pol 10': 79.648%
DRC-1; 90'; concentration 2.5
  % inhibition Apol 90': -0.4643%
DRC-1; 90'; concentration 5
  % inhibition Apol 90': 11.3565%
DRC-1; 90'; concentration 10
  % inhibition Apol 90': 14.0157%
DRC-1; 90'; concentration 20
  % inhibition Apol 90': 73.6159%
DRC-1; 90'; concentration 40
  % inhibition Apol 90': 79.7069%
DRC-1; 90'; concentration 80
  % inhibition Apol 90': 82.9478%
DRC-1; 180'; concentration 2.5
  % inhibition apPOL 180': -6.005%
DRC-1; 180'; concentration 5
  % inhibition apPOL 180': 0.9781%
DRC-1; 180'; concentration 10
  % inhibition apPOL 180': 3.9308%
DRC-1; 180'; concentration 20
  % inhibition apPOL 180': 61.1275%
DRC-1; 180'; concentration 40
  % inhibition apPOL 180': 73.0225%
DRC-1; 180'; concentration 80
  % inhibition apPOL 180': 82.2877%
[1]
  % inhibition Apo pol 5': 44%
DRC-2, 5', concentration 20 (unit not given)
  % inhibition Apo pol 5': 44%
[2]
  % inhibition Apol 40': 57%
[3]
  % inhibition Apol 40': 63%
DRC-2, 40', concentration 40 (unit not given)
  % inhibition Apol 40': 63%
[4]
  % inhibition ApPOL 90': 20%
[5]
  % inhibition ApPOL 90': 57%
DRC-2, 90', concentration 40 (unit not given)
  % inhibition ApPOL 90': 67%
[6]
  % inhibition apPOL 180': 63%
DRC-2, 180', concentration 80 (unit not given)
  % inhibition apPOL 180': 67%
DRC-2; 5'; concentration 2.5
  % inhibition Apo pol 5': 0%
DRC-2; 5'; concentration 5
  % inhibition Apo pol 5': 20%
[7]
  % inhibition Apo pol 5': 20%
DRC-2; 5'; concentration 10
  % inhibition Apo pol 5': 44%
DRC-2; 5'; concentration 20
  % inhibition Apo pol 5': 44%
DRC-2; 5'; concentration 40
  % inhibition Apo pol 5': 41%
DRC-2; 5'; concentration 80
  % inhibition Apo pol 5': 30%
DRC-2; 40'; concentration 2.5
  % inhibition Apol 40': -0.111%
DRC-2; 40'; concentration 5
  % inhibition Apol 40': 24%
DRC-2; 40'; concentration 10
  % inhibition Apol 40': 57%
DRC-2; 40'; concentration 20
  % inhibition Apol 40': 63%
DRC-2; 40'; concentration 40
  % inhibition Apol 40': 63%
DRC-2; 40'; concentration 80
  % inhibition Apol 40': 56%
DRC-2; 90'; concentration 2.5
  % inhibition ApPOL 90': -2%
DRC-2; 90'; concentration 5
  % inhibition ApPOL 90': 20%
DRC-2; 90'; concentration 10
  % inhibition ApPOL 90': 57%
DRC-2; 90'; concentration 20
  % inhibition ApPOL 90': 66%
DRC-2; 90'; concentration 40
  % inhibition ApPOL 90': 67%
DRC-2; 90'; concentration 80
  % inhibition ApPOL 90': 61%
DRC-2; 180'; concentration 2.5
  % inhibition apPOL 180': -7%
DRC-2; 180'; concentration 5
  % inhibition apPOL 180': 11%
DRC-2; 180'; concentration 10
  % inhibition apPOL 180': 48%
DRC-2; 180'; concentration 20
  % inhibition apPOL 180': 63%
DRC-2; 180'; concentration 40
  % inhibition apPOL 180': 69%
DRC-2; 180'; concentration 80
  % inhibition apPOL 180': 67%
[8]
  DNA Pol: 46
[9]
  DNA Pol: 46

## O=C(NNC(=O)C(F)(F)Sc1ccccc1)c1ccsc1 [Molecule 68, O=C(C(Sc1ccccc1)(F)F)NNC(=O)c1cscc1]
'DNA Pol'; screening value, unit not given; 90 min, 10 µM
  DNA Pol: 82
DRC-1; 10'; concentration 2.5
  % inhibition Apo pol 10': 18.9007%
DRC-1; 10'; concentration 5
  % inhibition Apo pol 10': 22.6096%
DRC-1; 10'; concentration 10
  % inhibition Apo pol 10': 35.002%
DRC-1; 10'; concentration 20
  % inhibition Apo pol 10': 47.6682%
DRC-1; 10'; concentration 40
  % inhibition Apo pol 10': 67.1681%
DRC-1; 10'; concentration 80
  % inhibition Apo pol 10': 81.7014%
DRC-1; 90'; concentration 2.5
  % inhibition Apol 90': -2.054%
DRC-1; 90'; concentration 5
  % inhibition Apol 90': 4.132%
DRC-1; 90'; concentration 10
  % inhibition Apol 90': 13.2706%
DRC-1; 90'; concentration 20
  % inhibition Apol 90': 25.6835%
DRC-1; 90'; concentration 40
  % inhibition Apol 90': 44.8257%
DRC-1; 90'; concentration 80
  % inhibition Apol 90': 64.9924%
DRC-1; 180'; concentration 2.5
  % inhibition apPOL 180': -9.701%
DRC-1; 180'; concentration 5
  % inhibition apPOL 180': -6.4745%
DRC-1; 180'; concentration 10
  % inhibition apPOL 180': 2.016%
DRC-1; 180'; concentration 20
  % inhibition apPOL 180': 13.4425%
DRC-1; 180'; concentration 40
  % inhibition apPOL 180': 32.4259%
DRC-1; 180'; concentration 80
  % inhibition apPOL 180': 53.4351%
DRC-2, 5', concentration 2.5
  % inhibition Apo pol 5': 9%
DRC-2, 5', concentration 5
  % inhibition Apo pol 5': 10%
DRC-2, 5', concentration 10
  % inhibition Apo pol 5': 23%
DRC-2, 5', concentration 20
  % inhibition Apo pol 5': 31%
DRC-2, 5', concentration 40
  % inhibition Apo pol 5': 47%
DRC-2, 5', concentration 80
  % inhibition Apo pol 5': 58%
DRC-2, 40', concentration 2.5
  % inhibition Apol 40': 5%
DRC-2, 40', concentration 5
  % inhibition Apol 40': 7%
DRC-2, 40', concentration 10
  % inhibition Apol 40': 19%
DRC-2, 40', concentration 20
  % inhibition Apol 40': 27%
DRC-2, 40', concentration 40
  % inhibition Apol 40': 48%
DRC-2, 40', concentration 80
  % inhibition Apol 40': 64%
DRC-2, 90', concentration 2.5
  % inhibition ApPOL 90': 2.82%
DRC-2, 90', concentration 5
  % inhibition ApPOL 90': 2.82%
DRC-2, 90', concentration 10
  % inhibition ApPOL 90': 15%
DRC-2, 90', concentration 20
  % inhibition ApPOL 90': 22%
DRC-2, 90', concentration 40
  % inhibition ApPOL 90': 44%
DRC-2, 90', concentration 80
  % inhibition ApPOL 90': 62%
DRC-2, 180', concentration 2.5
  % inhibition apPOL 180': -3.39%
DRC-2, 180', concentration 5
  % inhibition apPOL 180': -3.25%
DRC-2, 180', concentration 10
  % inhibition apPOL 180': 5%
DRC-2, 180', concentration 20
  % inhibition apPOL 180': 12%
DRC-2, 180', concentration 40
  % inhibition apPOL 180': 32%
DRC-2, 180', concentration 80
  % inhibition apPOL 180': 55%
Conc 2.5 (unit not given); 40'; DRC-2
  % inhibition Apol 40': 5%
Conc 2.5 (unit not given); 90'; DRC-2
  % inhibition ApPOL 90': 2.82%
Conc 5 (unit not given); 90'; DRC-2
  % inhibition ApPOL 90': 2.82%
Conc 10 (unit not given); 180'; DRC-2
  % inhibition apPOL 180': 5%
Primary screen hit value, DNA Pol (186 hits); 90 min, 10 µM
  DNA Pol: 82
